Results from paper PMC10178848, “Modulating fast skeletal muscle contraction protects skeletal muscle in animal models of Duchenne muscular dystrophy” (The Journal of Clinical Investigation, 2023).

Tested on: GRMD plasma proteins
Type: in vivo, dog
Conditions: Post-Treatment to GRMD baseline

For `O=c1ccc(-c2cnc(OCC(F)(F)F)nc2)nn1Cc1cncc(F)c1` [EDG-5506], the “Protein jagged-1 (JAG1): Change from GRMD Baseline (fraction)” value (Decreased in GRMD) was 0.0021 fraction, the “Retinol-binding protein 4 (RBP4): Change from GRMD Baseline (fraction)” value (Decreased in GRMD) was 0.0032 fraction and the “Roundabout homolog 2 (ROBO2): Change from GRMD Baseline (fraction)” value (Decreased in GRMD) was -0.0814 fraction. For the same compound, the “SLIT and NTRK-like protein 5 (SLITRK5): Change from GRMD Baseline (fraction)” value (Decreased in GRMD) was -0.2994 fraction, the “SPARC (SPARC): Change from GRMD Baseline (fraction)” value (Decreased in GRMD) was -0.1611 fraction and the “Sclerostin (SOST): Change from GRMD Baseline (fraction)” value (Decreased in GRMD) was 0.0855 fraction. For the same compound, the “Semaphorin-3E (SEMA3E): Change from GRMD Baseline (fraction)” value (Decreased in GRMD) was -0.1435 fraction, the “Semaphorin-5A (SEMA5A): Change from GRMD Baseline (fraction)” value (Decreased in GRMD) was -0.108 fraction and the “Serum albumin (ALB): Change from GRMD Baseline (fraction)” value (Decreased in GRMD) was -0.0304 fraction. For the same compound, the “Sialic acid-binding Ig-like lectin 6 (SIGLEC6): Change from GRMD Baseline (fraction)” value (Decreased in GRMD) was 0.0534 fraction, the “Stem cell growth factor-alpha (CLEC11A): Change from GRMD Baseline (fraction)” value (Decreased in GRMD) was -0.1896 fraction and the “T-lymphocyte surface antigen Ly-9 (LY9): Change from GRMD Baseline (fraction)” value (Decreased in GRMD) was 0.0022 fraction. The “TGF-beta receptor type-2 (TGFBR2): Change from GRMD Baseline (fraction)” value (Decreased in GRMD) was 0.1736 fraction, the “Tropomyosin alpha-1 chain (TPM1): Change from GRMD Baseline (fraction)” value (Decreased in GRMD) was 0.8207 fraction and the “Tumor necrosis factor receptor superfamily member 10B (TNFRSF10B): Change from GRMD Baseline (fraction)” value (Decreased in GRMD) was -0.0324 fraction. For the same compound, the “Tumor necrosis factor-inducible gene 6 protein (TNFAIP6): Change from GRMD Baseline (fraction)” value (Decreased in GRMD) was 1.4994 fraction, the “Wnt inhibitory factor 1 (WIF1): Change from GRMD Baseline (fraction)” value (Decreased in GRMD) was -0.1154 fraction and the “Activated Protein C (PROC): Change from GRMD Baseline (fraction)” value (Increased in GRMD) was 0.4863 fraction. For the same compound, the “Adiponectin (ADIPOQ): Change from GRMD Baseline (fraction)” value (Increased in GRMD) was 0.0194 fraction, the “Alanine aminotransferase 1 (GPT): Change from GRMD Baseline (fraction)” value (Increased in GRMD) was 0.0095 fraction and the “Alpha-2-antiplasmin (SERPINF2): Change from GRMD Baseline (fraction)” value (Increased in GRMD) was -0.0109 fraction. The “Apolipoprotein D (APOD): Change from GRMD Baseline (fraction)” value (Increased in GRMD) was 0.0538 fraction, the “Apolipoprotein L1 (APOL1): Change from GRMD Baseline (fraction)” value (Increased in GRMD) was -0.0015 fraction and the “Asialoglycoprotein receptor 1 (ASGR1): Change from GRMD Baseline (fraction)” value (Increased in GRMD) was -0.0063 fraction. For the same compound, the “Bone morphogenetic protein 1 (BMP1): Change from GRMD Baseline (fraction)” value (Increased in GRMD) was -0.0803 fraction, the “Breast cancer anti-estrogen resistance protein 3 (BCAR3): Change from GRMD Baseline (fraction)” value (Increased in GRMD) was -0.0258 fraction and the “C5a anaphylatoxin (C5): Change from GRMD Baseline (fraction)” value (Increased in GRMD) was -0.0743 fraction. The “C-C motif chemokine 1 (CCL1): Change from GRMD Baseline (fraction)” value (Increased in GRMD) was 0.0039 fraction, the “C-C motif chemokine 3 (CCL3): Change from GRMD Baseline (fraction)” value (Increased in GRMD) was -0.0317 fraction and the “C-X-C motif chemokine 5 (CXCL5): Change from GRMD Baseline (fraction)” value (Increased in GRMD) was 0.0104 fraction. The “CD63 antigen (CD63): Change from GRMD Baseline (fraction)” value (Increased in GRMD) was -0.0301 fraction, the “CD97 antigen (CD97): Change from GRMD Baseline (fraction)” value (Increased in GRMD) was 0.0218 fraction and the “CD109 antigen (CD109): Change from GRMD Baseline (fraction)” value (Increased in GRMD) was 0.0141 fraction. The “CD177 antigen (CD177): Change from GRMD Baseline (fraction)” value (Increased in GRMD) was -0.108 fraction, the “Carbonic anhydrase 4 (CA4): Change from GRMD Baseline (fraction)” value (Increased in GRMD) was 0.0571 fraction and the “Caspase-3 (CASP3): Change from GRMD Baseline (fraction)” value (Increased in GRMD) was -0.049 fraction. For the same compound, the “Cell adhesion molecule 3 (CADM3): Change from GRMD Baseline (fraction)” value (Increased in GRMD) was 0.0642 fraction, the “Change from GRMD Baseline (fraction): 1-phosphatidylinositol 4,5-bisphosphate phosphodiesterase gamma-1 (PLCG1)” value (Increased in GRMD) was 0.0175 fraction and the “Change from GRMD Baseline (fraction): 14-3-3 protein family (YWHAB,YWHAE,YWHAG,YWHAH,YWHAQ,YWHAZ,SFN)” value (Increased in GRMD) was -0.0622 fraction. The “Change from GRMD Baseline (fraction): 26S proteasome non-ATPase regulatory subunit 7 (PSMD7)” value (Increased in GRMD) was -0.0966 fraction, the “Change from GRMD Baseline (fraction): 40S ribosomal protein S7 (RPS7)” value (Increased in GRMD) was -0.1727 fraction and the “Change from GRMD Baseline (fraction): A disintegrin and metalloproteinase with thrombospondin motifs 5 (ADAMTS5)” value (Increased in GRMD) was 0.0247 fraction. For the same compound, the “Change from GRMD Baseline (fraction): A disintegrin and metalloproteinase with thrombospondin motifs 15 (ADAMTS15)” value (Increased in GRMD) was 0.1616 fraction, the “Change from GRMD Baseline (fraction): AH receptor-interacting protein (AIP)” value (Increased in GRMD) was 0.0125 fraction and the “Change from GRMD Baseline (fraction): AMP Kinase (alpha2beta2gamma1) (PRKAA2 PRKAB2 PRKAG1)” value (Increased in GRMD) was -0.177 fraction. For the same compound, the “Change from GRMD Baseline (fraction): ATP synthase subunit beta, mitochondrial (ATP5B)” value (Increased in GRMD) was 0.0065 fraction, the “Change from GRMD Baseline (fraction): ATP-dependent RNA helicase DDX19B (DDX19B)” value (Increased in GRMD) was -0.0978 fraction and the “Change from GRMD Baseline (fraction): Acidic leucine-rich nuclear phosphoprotein 32 family member B (ANP32B)” value (Increased in GRMD) was -0.0886 fraction. The “Change from GRMD Baseline (fraction): Activin receptor type-1B (ACVR1B)” value (Increased in GRMD) was -0.017 fraction, the “Change from GRMD Baseline (fraction): Adenylate kinase isoenzyme 1 (AK1)” value (Increased in GRMD) was -0.2055 fraction and the “Change from GRMD Baseline (fraction): Adenylosuccinate lyase (ADSL)” value (Increased in GRMD) was 0.0105 fraction. The “Change from GRMD Baseline (fraction): Afamin (AFM)” value (Increased in GRMD) was -0.0171 fraction, the “Change from GRMD Baseline (fraction): Aflatoxin B1 aldehyde reductase member 2 (AKR7A2)” value (Increased in GRMD) was -0.0506 fraction and the “Change from GRMD Baseline (fraction): Alcohol dehydrogenase [NADP(+)] (AKR1A1)” value (Increased in GRMD) was -0.1025 fraction. The “Change from GRMD Baseline (fraction): Aminoacylase-1 (ACY1)” value (Increased in GRMD) was -0.1248 fraction, the “Change from GRMD Baseline (fraction): Amphoterin-induced protein 2 (AMIGO2)” value (Increased in GRMD) was -0.0371 fraction and the “Change from GRMD Baseline (fraction): Annexin A6 (ANXA6)” value (Increased in GRMD) was -0.0862 fraction. For the same compound, the “Change from GRMD Baseline (fraction): Anterior gradient protein 2 homolog (AGR2)” value (Increased in GRMD) was 0.2414 fraction and the “Change from GRMD Baseline (fraction): Apolipoprotein E (APOE)” value (Increased in GRMD) was 0.0948 fraction.
